{"source": "patent US20230115298A1", "about": "“METHOD FOR CONTROLLING THE GROWTH OF UNDESIRABLE VEGETATION” (UPL Limited, priority 2021, published 2023)", "system": "weedy Glycine max", "test": "Greenhouse trials, post-emergence herbicidal efficacy of L-glufosinate, other herbicides and their combinations (observed vs Colby expected)", "format": "in vivo", "conditions": "for Control %: Table 1", "procedure": "Greenhouse trials were carried out to evaluate the efficacy of the combination of L-glufosinate and the other herbicides on weedy Glycine max. The soil used was sandy clay loam—Sand: 68.0%; Silt: 8.0%; Clay: 24.0%. All treatments were in 3 replications per treatment with a spray volume of […].\nThe expected efficacy of a combination of L-glufosinate and the other herbicides was calculated using the well-established Colby method. Any difference between the observed and “expected” efficacy could be attributed to synergy between the two compounds.\nIn the Colby method, the expected (or predicted) response of a combination of herbicides is calculated by taking the product of the observed response for each individual component of the combination when applied alone, divided by 100, and subtracting this value from the sum of the observed response for each component when applied alone. An unexpected enhancement in efficacy of the combination is then determined by comparing the observed response of the combination to the expected (or predicted) response as calculated from the observed response of each individual component alone. If the observed response of the combination is greater than the expected (or predicted) response, or stated conversely, if the difference between the observed and expected response is greater than zero, then the combination is said to be synergistic or unexpectedly effective (Colby, S. R., Weeds, 1967(15), p. 20-22). The Colby method requires only a single dose of each herbicide applied alone and the mixture of both doses. The formula used to calculate the expected efficacy (EE) which was compared with the observed efficacy (OE) to determine the efficacy of the present invention is explained hereinbelow:\nThe expected efficacy for a combination of two active ingredients is as follows:\nThe expected efficacy for a combination of three active ingredients is as follows:\n[…] The target weed was weedy Glycine max, and the concentration of the herbicide and the results are recorded in the table 1 below:", "key": {"[1]": {"conditions": "14 DAA, dose a.i. g/h: L-glufosinate 150, oxyfluorfen 107.1, imazethapyr 75, carfentrazone 7.5"}, "[2]": {"conditions": "21 DAA, dose a.i. g/h: L-glufosinate 150, oxyfluorfen 107.1, imazethapyr 75, carfentrazone 7.5"}, "[3]": {"conditions": "28 DAA, dose a.i. g/h: L-glufosinate 150, oxyfluorfen 107.1, imazethapyr 75, carfentrazone 7.5"}, "[4]": {"conditions": "35 DAA, dose a.i. g/h: L-glufosinate 150, oxyfluorfen 107.1, imazethapyr 75, carfentrazone 7.5"}}}
{"molecule": "Cc1nn(-c2cc(CC(Cl)C(=O)O)c(Cl)cc2F)c(=O)n1C(F)F", "note": "(stereo not shown) [Carfentrazone, carfentrazone]", "values": [{"measurement": "Control %", "setting": "[1]", "result": 50.3, "unit": "%"}, {"measurement": "Control %", "setting": "14 DAA, dose a.i. g/h: carfentrazone 9.0, L-glufosinate 150", "result": 51.7, "unit": "%"}, {"measurement": "Control %", "setting": "[2]", "result": 44.3, "unit": "%"}, {"measurement": "Control %", "setting": "21 DAA, dose a.i. g/h: carfentrazone 9.0, L-glufosinate 150", "result": 51.0, "unit": "%"}, {"measurement": "Control %", "setting": "[3]", "result": 44.3, "unit": "%"}, {"measurement": "Control %", "setting": "28 DAA, dose a.i. g/h: carfentrazone 9.0, L-glufosinate 150", "result": 51.0, "unit": "%"}, {"measurement": "Control %", "setting": "[4]", "result": 39.3, "unit": "%"}, {"measurement": "Control %", "setting": "35 DAA, dose a.i. g/h: carfentrazone 9.0, L-glufosinate 150", "result": 46.7, "unit": "%"}]}
{"molecule": "CC(Oc1ccc(Oc2ncc(C(F)(F)F)cc2Cl)cc1)C(=O)O", "note": "(stereo not shown) [Haloxyfop, haloxyfop]", "values": [{"measurement": "% control", "setting": "Table 7, 3 DAA, g ai/h: L-glufosinate 150, haloxyfop 50", "result": 5, "unit": "%"}, {"measurement": "% control", "setting": "Table 7, 7 DAA, g ai/h: L-glufosinate 150, haloxyfop 50", "result": 13.3, "unit": "%"}, {"measurement": "% control", "setting": "Table 7, 14 DAA, g ai/h: L-glufosinate 150, haloxyfop 50", "result": 15, "unit": "%"}, {"measurement": "% control", "setting": "Table 7, 21 DAA, g ai/h: L-glufosinate 150, haloxyfop 50", "result": 12.3, "unit": "%"}, {"measurement": "% control", "setting": "Table 7, 28 DAA, g ai/h: L-glufosinate 150, haloxyfop 50", "result": 12.3, "unit": "%"}, {"measurement": "% control", "setting": "Table 7, 35 DAA, g ai/h: L-glufosinate 150, haloxyfop 50", "result": 12.3, "unit": "%"}]}
{"molecule": "O=C(O)COc1nc(Cl)c(Cl)cc1Cl", "note": "[Triclopyr, triclopyr]", "values": [{"measurement": "% control", "setting": "Table 5, 7 DAA, g ai/h: L-glufosinate 150, triclopyr 288", "result": 50, "unit": "%"}, {"measurement": "% control", "setting": "Table 5, 14 DAA, g ai/h: L-glufosinate 150, triclopyr 288", "result": 79.3, "unit": "%"}]}
{"molecule": "O=C(O)CNCP(=O)(O)O", "note": "[Glyphosate, glyphosate]", "values": [{"measurement": "% control", "setting": "Table 2, 3 DAA, g ai/h: L-glufosinate 150, glyphosate 379", "result": 0, "unit": "%"}, {"measurement": "% control", "setting": "Table 2, 7 DAA, g ai/h: L-glufosinate 150, glyphosate 379", "result": 0, "unit": "%"}, {"measurement": "% control", "setting": "Table 2, 14 DAA, g ai/h: L-glufosinate 150, glyphosate 379", "result": 0, "unit": "%"}, {"measurement": "% control", "setting": "Table 2, 21 DAA, g ai/h: L-glufosinate 150, glyphosate 379", "result": 0, "unit": "%"}, {"measurement": "% control", "setting": "Table 2, 28 DAA, g ai/h: L-glufosinate 150, glyphosate 379", "result": 0, "unit": "%"}, {"measurement": "% control", "setting": "Table 2, 35 DAA, g ai/h: L-glufosinate 150, glyphosate 379", "result": 0, "unit": "%"}]}
{"molecule": "CCSC(C)CC1CC(=O)C(/C(CC)=N/OC/C=C/Cl)=C(O)C1", "note": "(stereo not shown) [Clethodim, clethodim]", "values": [{"measurement": "% control", "setting": "Table 6, 3 DAA, g ai/h: L-glufosinate 150, clethodim 45", "result": 0, "unit": "%"}, {"measurement": "% control", "setting": "Table 6, 7 DAA, g ai/h: L-glufosinate 150, clethodim 45", "result": 0, "unit": "%"}, {"measurement": "% control", "setting": "Table 6, 14 DAA, g ai/h: L-glufosinate 150, clethodim 45", "result": 0, "unit": "%"}, {"measurement": "% control", "setting": "Table 6, 21 DAA, g ai/h: L-glufosinate 150, clethodim 45", "result": 0, "unit": "%"}, {"measurement": "% control", "setting": "Table 6, 28 DAA, g ai/h: L-glufosinate 150, clethodim 45", "result": 0, "unit": "%"}, {"measurement": "% control", "setting": "Table 6, 35 DAA, g ai/h: L-glufosinate 150, clethodim 45", "result": 0, "unit": "%"}]}
{"molecule": "CCOc1cc(Oc2ccc(C(F)(F)F)cc2Cl)ccc1[N+](=O)[O-]", "note": "[Oxyfluorfen, oxyfluorfen]", "values": [{"measurement": "Control %", "setting": "[1]", "result": 46.7, "unit": "%"}, {"measurement": "Control %", "setting": "[2]", "result": 45.0, "unit": "%"}, {"measurement": "Control %", "setting": "[3]", "result": 43.3, "unit": "%"}, {"measurement": "Control %", "setting": "[4]", "result": 35.0, "unit": "%"}]}
{"molecule": "C#CCN1C(=O)COc2cc(F)c(N3C(=O)C4=C(CCCC4)C3=O)cc21", "note": "[Flumioxazin, flumioxazin]", "values": [{"measurement": "% control", "setting": "Table 3, 3 DAA, g ai/h: L-glufosinate 150, flumioxazin 30", "result": 7.7, "unit": "%"}, {"measurement": "% control", "setting": "Table 3, 7 DAA, g ai/h: L-glufosinate 150, flumioxazin 30", "result": 31.7, "unit": "%"}, {"measurement": "% control", "setting": "Table 3, 21 DAA, g ai/h: L-glufosinate 150, flumioxazin 30", "result": 40, "unit": "%"}, {"measurement": "% control", "setting": "Table 3, 28 DAA, g ai/h: L-glufosinate 150, flumioxazin 30", "result": 40, "unit": "%"}, {"measurement": "% control", "setting": "Table 3, 35 DAA, g ai/h: L-glufosinate 150, flumioxazin 30", "result": 30, "unit": "%"}]}
{"molecule": "CCc1cnc(C2=NC(C)(C(C)C)C(=O)N2)c(C(=O)O)c1", "note": "(stereo not shown) [Imazethapyr, imazethapyr]", "values": [{"measurement": "Control %", "setting": "[1]", "result": 10, "unit": "%"}, {"measurement": "Control %", "setting": "[2]", "result": 20.0, "unit": "%"}, {"measurement": "Control %", "setting": "[3]", "result": 20.0, "unit": "%"}, {"measurement": "Control %", "setting": "[4]", "result": 15.0, "unit": "%"}]}
{"molecule": "O=C(O)COc1ccc(Cl)cc1Cl", "note": "[2,4-D]", "values": [{"measurement": "% control", "setting": "Table 4, 7 DAA, g ai/h: L-glufosinate 150, 2,4-D 204", "result": 41.7, "unit": "%"}, {"measurement": "% control", "setting": "Table 4, 14 DAA, g ai/h: L-glufosinate 150, 2,4-D 204", "result": 42.7, "unit": "%"}, {"measurement": "% control", "setting": "Table 4, 21 DAA, g ai/h: L-glufosinate 150, 2,4-D 204", "result": 50.7, "unit": "%"}, {"measurement": "% control", "setting": "Table 4, 28 DAA, g ai/h: L-glufosinate 150, 2,4-D 204", "result": 53.3, "unit": "%"}, {"measurement": "% control", "setting": "Table 4, 35 DAA, g ai/h: L-glufosinate 150, 2,4-D 204", "result": 48.3, "unit": "%"}]}
